In ChEMBL document CHEMBL4665658, “Quinoline and thiazolopyridine allosteric inhibitors of MALT1” (Bioorg Med Chem Lett, 2019):

Experiments:
[1] = Plasma protein binding in mouse assessed as unbound fraction; type: ADME, cell-free; parameters: dose or concentration left out as unconfirmed; conditions: read-out: PPB
[2] = molecular target: Urokinase-type plasminogen activator (Homo sapiens) (UniProt P00749); assay: Inhibition of urokinase (unknown origin) at 10 uM
[3] = molecular target: T1, Pro-cathepsin H (Homo sapiens) (UniProt P09668); assay: Inhibition of cathepsin H (unknown origin) at 10 uM
T1 sequence (whole entry): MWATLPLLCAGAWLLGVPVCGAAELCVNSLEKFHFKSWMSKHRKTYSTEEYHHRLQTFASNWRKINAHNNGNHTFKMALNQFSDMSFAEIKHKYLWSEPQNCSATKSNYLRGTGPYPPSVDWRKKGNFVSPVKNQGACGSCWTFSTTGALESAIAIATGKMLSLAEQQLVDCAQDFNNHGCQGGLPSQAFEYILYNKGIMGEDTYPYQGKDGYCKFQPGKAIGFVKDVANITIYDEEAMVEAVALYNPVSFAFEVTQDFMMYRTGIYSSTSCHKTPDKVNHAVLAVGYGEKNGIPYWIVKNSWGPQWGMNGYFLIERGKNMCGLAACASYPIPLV

[4] = Half life in mouse at 1 mg/kg, iv or 5 mg/kg, po; type: ADME, organism-based; conditions: in vivo
[5] = molecular target: Cathepsin S (Homo sapiens) (UniProt P25774); assay: Inhibition of cathepsin S (unknown origin) at 10 uM
[6] = molecular target: T2, Cathepsin K (Homo sapiens) (UniProt P43235); assay: Inhibition of cathepsin K (unknown origin) at 10 uM
T2 sequence (whole entry): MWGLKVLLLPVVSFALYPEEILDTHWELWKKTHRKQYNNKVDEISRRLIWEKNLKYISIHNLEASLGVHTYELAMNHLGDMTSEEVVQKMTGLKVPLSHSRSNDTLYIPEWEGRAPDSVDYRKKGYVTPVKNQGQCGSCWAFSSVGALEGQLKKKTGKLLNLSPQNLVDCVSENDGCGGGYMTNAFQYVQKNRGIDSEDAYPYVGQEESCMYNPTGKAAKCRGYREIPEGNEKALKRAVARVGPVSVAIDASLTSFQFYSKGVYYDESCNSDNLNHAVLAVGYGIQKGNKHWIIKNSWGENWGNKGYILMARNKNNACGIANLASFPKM

[7] = Aqueous solubility of the compound at pH 7; type: physicochemical; conditions: aqueous medium
Trypsin (Homo sapiens) = Trypsin (Homo sapiens) (UniProt P07477+P07478+P35030); assay: Inhibition of trypsin (unknown origin) at 10 uM; type: protein assay
Caspase-4 (Homo sapiens) = molecular target: T3, Caspase-4 (Homo sapiens) (UniProt P49662); assay: Inhibition of Caspase 4 (unknown origin) at 10 uM
T3 sequence (whole entry): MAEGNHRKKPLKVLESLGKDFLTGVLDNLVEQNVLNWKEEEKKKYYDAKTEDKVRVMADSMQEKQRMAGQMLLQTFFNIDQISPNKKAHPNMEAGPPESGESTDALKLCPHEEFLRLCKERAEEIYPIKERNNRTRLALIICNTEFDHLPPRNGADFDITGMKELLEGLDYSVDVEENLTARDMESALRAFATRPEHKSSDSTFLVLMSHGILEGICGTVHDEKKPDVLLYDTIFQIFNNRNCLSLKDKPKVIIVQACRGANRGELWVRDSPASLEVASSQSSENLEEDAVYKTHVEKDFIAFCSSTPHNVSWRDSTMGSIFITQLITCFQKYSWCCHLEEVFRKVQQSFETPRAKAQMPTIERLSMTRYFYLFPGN

[8] = Metabolic stability in human microsome assessed as half life; type: ADME; parameters: dose or concentration left out as unconfirmed; conditions: microsomes, read-out: Stabilty
OCI-Ly3 = assay: Antiproliferative activity against human OCILY3 cells by cell proliferation assay; type: functional, cell-based
[9] = molecular target: Caspase-10 (Homo sapiens) (UniProt Q92851); assay: Inhibition of Caspase 10 (unknown origin) at 10 uM
[10] = Metabolic stability in mouse microsome assessed as half life; type: ADME; parameters: dose or concentration left out as unconfirmed; conditions: microsomes, read-out: Stabilty
Caspase-8 (Homo sapiens) = Caspase-8 (Homo sapiens) (UniProt Q14790); assay: Inhibition of Caspase 8 (unknown origin) at 10 uM
Caspase-3 (Homo sapiens) = Caspase-3 (Homo sapiens) (UniProt P42574); assay: Inhibition of Caspase 3 (unknown origin) at 10 uM
[11] = molecular target: Procathepsin L (Homo sapiens) (UniProt P07711); assay: Inhibition of cathepsin L (unknown origin) at 10 uM
Legumain (Homo sapiens) = molecular target: T4, Legumain (Homo sapiens) (UniProt Q99538); assay: Inhibition of Legumain (unknown origin) at 10 uM
T4 sequence (whole entry): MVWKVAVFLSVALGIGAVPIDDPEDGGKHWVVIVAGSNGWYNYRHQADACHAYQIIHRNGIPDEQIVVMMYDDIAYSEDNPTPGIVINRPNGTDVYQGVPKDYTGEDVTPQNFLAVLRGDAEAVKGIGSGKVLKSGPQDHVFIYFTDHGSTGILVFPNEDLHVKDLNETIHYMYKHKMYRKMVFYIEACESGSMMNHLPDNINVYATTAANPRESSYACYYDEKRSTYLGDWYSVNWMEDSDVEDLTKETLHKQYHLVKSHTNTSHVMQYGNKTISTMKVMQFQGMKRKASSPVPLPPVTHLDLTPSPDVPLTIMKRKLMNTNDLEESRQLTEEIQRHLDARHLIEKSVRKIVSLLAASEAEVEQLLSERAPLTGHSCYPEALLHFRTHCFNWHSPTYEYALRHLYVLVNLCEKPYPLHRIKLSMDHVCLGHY

[12] = molecular target: Kallikrein-1 (Homo sapiens) (UniProt P06870); assay: Inhibition of KLK1 (unknown origin) at 10 uM
[13] = molecular target: Prothrombin (Homo sapiens) (UniProt P00734); assay: Inhibition of thrombin (unknown origin) at 10 uM
[14] = AUC (0 to infinity) in mouse at 1 mg/kg, iv or 5 mg/kg, po; type: ADME, organism-based; parameters: dose 5 mg/kg; conditions: in vivo
Homo sapiens [15] = organism: Homo sapiens; assay: Inhibition of Calpain (unknown origin) at 10 uM
[16] = molecular target: Cathepsin B (Homo sapiens) (UniProt P07858); assay: Inhibition of cathepsin B (unknown origin) at 10 uM
[17] = Oral bioavailability in mouse at 5 mg/kg; type: ADME, organism-based; conditions: in vivo
[18] = molecular target: Kallikrein-2 (Homo sapiens) (UniProt P20151); assay: Inhibition of KLK2 (unknown origin) at 10 uM
[19] = Plasma protein binding in human assessed as unbound fraction; type: ADME, cell-free; conditions: read-out: PPB
[20] = Clearance in mouse at 1 mg/kg, iv; type: ADME, organism-based; conditions: in vivo
Caspase-9 (Homo sapiens) = Caspase-9 (Homo sapiens) (UniProt P55211); assay: Inhibition of Caspase 9 (unknown origin) at 10 uM
Homo sapiens [21] = organism: Homo sapiens; assay: Inhibition of tryptase (unknown origin) at 10 uM
Caspase-6 (Homo sapiens) = molecular target: T5, Caspase-6 (Homo sapiens) (UniProt P55212); assay: Inhibition of Caspase 6 (unknown origin) at 10 uM
T5 sequence (whole entry): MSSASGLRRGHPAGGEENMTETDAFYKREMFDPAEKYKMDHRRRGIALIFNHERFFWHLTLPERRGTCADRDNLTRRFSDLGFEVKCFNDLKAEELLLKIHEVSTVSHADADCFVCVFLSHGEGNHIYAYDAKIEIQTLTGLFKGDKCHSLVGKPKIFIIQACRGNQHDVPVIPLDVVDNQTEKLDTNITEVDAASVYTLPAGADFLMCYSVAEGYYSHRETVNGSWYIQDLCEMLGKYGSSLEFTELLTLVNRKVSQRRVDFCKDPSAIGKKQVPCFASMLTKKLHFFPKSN

[22] = molecular target: Cathepsin D (Homo sapiens) (UniProt P07339); assay: Inhibition of cathepsin D (unknown origin) at 10 uM
Caspase-2 (Homo sapiens) = Caspase-2 (Homo sapiens) (UniProt P42575); assay: Inhibition of Caspase 2 (unknown origin) at 10 uM
Caspase-7 (Homo sapiens) = Caspase-7 (Homo sapiens) (UniProt P55210); assay: Inhibition of Caspase 7 (unknown origin) at 10 uM
[23] = molecular target: Coagulation factor X (Homo sapiens) (UniProt P00742); assay: Inhibition of factor Xa (unknown origin) at 10 uM
[24] = molecular target: Cathepsin L2 (Homo sapiens) (UniProt O60911); assay: Inhibition of cathepsin V (unknown origin) at 10 uM
[25] = molecular target: Cathepsin G (Homo sapiens) (UniProt P08311); assay: Inhibition of cathepsin G (unknown origin) at 10 uM
Caspase-1 (Homo sapiens) = Caspase-1 (Homo sapiens) (UniProt P29466); assay: Inhibition of Caspase 1 (unknown origin) at 10 uM
Caspase-5 (Homo sapiens) = Caspase-5 (Homo sapiens) (UniProt P51878); assay: Inhibition of Caspase 5 (unknown origin) at 10 uM
[26] = molecular target: Cathepsin E (Homo sapiens) (UniProt P14091); assay: Inhibition of cathepsin E (unknown origin) at 10 uM
Cathepsin E (Homo sapiens), sequence (P14091 whole entry): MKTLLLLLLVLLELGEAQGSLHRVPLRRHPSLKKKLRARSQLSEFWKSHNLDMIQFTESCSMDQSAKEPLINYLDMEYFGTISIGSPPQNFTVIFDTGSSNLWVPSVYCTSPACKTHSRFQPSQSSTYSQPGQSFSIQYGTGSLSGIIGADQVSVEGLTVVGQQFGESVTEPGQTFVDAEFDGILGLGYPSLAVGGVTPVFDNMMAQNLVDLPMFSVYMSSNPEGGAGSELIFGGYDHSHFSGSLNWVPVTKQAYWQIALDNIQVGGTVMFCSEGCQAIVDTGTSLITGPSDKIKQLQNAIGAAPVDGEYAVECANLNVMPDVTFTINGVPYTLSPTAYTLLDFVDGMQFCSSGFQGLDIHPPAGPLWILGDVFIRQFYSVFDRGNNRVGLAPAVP

Kallikrein-2 (Homo sapiens), sequence (P20151 whole entry): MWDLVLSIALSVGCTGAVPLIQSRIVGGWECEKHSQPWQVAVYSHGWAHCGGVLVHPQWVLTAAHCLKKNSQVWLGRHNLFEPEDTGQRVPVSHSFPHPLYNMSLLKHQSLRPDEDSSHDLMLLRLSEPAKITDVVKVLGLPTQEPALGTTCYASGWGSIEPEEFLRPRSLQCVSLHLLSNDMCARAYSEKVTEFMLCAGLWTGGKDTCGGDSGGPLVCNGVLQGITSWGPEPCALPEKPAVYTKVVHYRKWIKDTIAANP
Caspase-8 (Homo sapiens), sequence (Q14790 217-374 limits assumed): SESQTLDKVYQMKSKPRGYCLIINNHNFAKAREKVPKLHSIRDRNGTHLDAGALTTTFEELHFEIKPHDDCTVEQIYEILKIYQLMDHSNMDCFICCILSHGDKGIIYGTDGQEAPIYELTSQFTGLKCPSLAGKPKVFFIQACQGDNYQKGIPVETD
Caspase-8 (Homo sapiens), sequence (Q14790 385-479 limits assumed): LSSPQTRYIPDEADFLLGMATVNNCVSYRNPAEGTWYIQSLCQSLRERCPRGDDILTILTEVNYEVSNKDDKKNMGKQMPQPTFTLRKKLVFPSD
Caspase-10 (Homo sapiens), sequence (Q92851 220-415 limits assumed): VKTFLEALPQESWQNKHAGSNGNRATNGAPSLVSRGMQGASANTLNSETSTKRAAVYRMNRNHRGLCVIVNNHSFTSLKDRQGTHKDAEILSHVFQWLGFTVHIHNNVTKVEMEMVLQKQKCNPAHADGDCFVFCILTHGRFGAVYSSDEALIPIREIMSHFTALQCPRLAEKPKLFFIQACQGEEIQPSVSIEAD
Caspase-10 (Homo sapiens), sequence (Q92851 416-521 limits assumed): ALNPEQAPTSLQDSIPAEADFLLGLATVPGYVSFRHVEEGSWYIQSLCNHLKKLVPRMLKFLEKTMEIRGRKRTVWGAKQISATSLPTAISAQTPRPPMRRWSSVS
Procathepsin L (Homo sapiens), sequence (P07711 114-333 limits assumed): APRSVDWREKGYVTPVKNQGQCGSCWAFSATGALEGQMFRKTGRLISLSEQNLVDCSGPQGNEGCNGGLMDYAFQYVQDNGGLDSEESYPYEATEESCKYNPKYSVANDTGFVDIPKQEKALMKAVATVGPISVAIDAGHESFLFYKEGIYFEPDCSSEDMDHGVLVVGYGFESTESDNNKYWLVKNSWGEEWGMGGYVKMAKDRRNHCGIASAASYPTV
Kallikrein-1 (Homo sapiens), sequence (P06870 25-262 limits assumed): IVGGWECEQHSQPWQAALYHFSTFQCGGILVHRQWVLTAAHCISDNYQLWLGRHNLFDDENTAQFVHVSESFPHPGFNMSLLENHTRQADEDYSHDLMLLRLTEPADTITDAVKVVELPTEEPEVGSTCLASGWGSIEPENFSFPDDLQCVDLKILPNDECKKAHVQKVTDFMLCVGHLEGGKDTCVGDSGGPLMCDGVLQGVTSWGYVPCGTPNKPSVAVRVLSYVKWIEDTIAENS
Cathepsin S (Homo sapiens), sequence (P25774 115-331 limits assumed): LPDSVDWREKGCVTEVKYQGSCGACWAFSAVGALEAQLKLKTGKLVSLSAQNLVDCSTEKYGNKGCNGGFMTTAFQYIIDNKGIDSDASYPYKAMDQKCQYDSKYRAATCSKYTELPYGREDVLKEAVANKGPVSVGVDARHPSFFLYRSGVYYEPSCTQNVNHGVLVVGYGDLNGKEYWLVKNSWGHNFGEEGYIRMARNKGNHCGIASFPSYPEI
Caspase-3 (Homo sapiens), sequence (P42574 29-175 limits assumed): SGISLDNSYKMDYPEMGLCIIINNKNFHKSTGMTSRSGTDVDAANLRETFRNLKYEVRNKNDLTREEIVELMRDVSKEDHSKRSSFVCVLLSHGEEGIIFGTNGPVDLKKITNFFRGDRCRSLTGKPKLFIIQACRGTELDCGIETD
Caspase-3 (Homo sapiens), sequence (P42574 176-277 limits assumed): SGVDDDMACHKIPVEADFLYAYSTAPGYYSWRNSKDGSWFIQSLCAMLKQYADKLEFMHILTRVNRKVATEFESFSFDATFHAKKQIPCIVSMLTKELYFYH
Caspase-9 (Homo sapiens), sequence (P55211 1-315 limits assumed): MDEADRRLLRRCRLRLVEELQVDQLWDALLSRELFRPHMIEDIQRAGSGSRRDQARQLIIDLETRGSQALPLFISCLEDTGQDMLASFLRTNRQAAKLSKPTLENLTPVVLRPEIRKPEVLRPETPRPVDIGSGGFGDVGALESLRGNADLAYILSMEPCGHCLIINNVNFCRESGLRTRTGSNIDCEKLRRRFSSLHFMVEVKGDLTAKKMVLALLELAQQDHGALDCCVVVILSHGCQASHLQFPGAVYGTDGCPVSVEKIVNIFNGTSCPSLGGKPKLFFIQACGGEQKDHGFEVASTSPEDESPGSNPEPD
Caspase-9 (Homo sapiens), sequence (P55211 331-416 limits assumed): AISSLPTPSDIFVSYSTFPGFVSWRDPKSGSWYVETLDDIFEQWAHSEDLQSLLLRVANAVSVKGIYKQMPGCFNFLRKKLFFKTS
Caspase-5 (Homo sapiens), sequence (P51878 137-327 limits assumed): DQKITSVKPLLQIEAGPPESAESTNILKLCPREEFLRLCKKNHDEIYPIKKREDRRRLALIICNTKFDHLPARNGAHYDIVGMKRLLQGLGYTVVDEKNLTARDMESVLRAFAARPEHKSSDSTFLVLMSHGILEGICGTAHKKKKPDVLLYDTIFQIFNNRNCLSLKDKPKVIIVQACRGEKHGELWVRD
Caspase-5 (Homo sapiens), sequence (P51878 347-434 limits assumed): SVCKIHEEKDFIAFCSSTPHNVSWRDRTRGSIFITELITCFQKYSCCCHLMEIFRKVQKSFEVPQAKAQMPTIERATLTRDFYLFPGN
Caspase-1 (Homo sapiens), sequence (P29466 120-297 limits assumed): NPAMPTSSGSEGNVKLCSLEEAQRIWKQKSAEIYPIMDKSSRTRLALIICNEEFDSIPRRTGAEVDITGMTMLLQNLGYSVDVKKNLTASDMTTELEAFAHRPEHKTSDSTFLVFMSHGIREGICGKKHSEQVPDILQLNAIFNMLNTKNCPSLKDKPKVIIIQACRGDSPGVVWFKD
Caspase-1 (Homo sapiens), sequence (P29466 317-404 limits assumed): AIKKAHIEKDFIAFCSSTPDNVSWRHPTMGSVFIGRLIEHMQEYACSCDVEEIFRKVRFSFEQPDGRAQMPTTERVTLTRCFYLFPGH
Cathepsin D (Homo sapiens), sequence (P07339 65-162 limits assumed): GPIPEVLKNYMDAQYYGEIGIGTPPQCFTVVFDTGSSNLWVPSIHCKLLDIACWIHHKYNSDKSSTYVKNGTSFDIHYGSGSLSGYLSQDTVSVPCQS
Cathepsin D (Homo sapiens), sequence (P07339 169-412 limits assumed): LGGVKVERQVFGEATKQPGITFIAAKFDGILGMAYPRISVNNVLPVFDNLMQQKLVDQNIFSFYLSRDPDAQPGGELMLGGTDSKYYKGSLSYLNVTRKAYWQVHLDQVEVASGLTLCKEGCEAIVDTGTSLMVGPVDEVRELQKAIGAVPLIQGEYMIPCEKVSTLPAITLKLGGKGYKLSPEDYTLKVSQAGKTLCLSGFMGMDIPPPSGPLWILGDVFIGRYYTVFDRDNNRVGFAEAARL
Caspase-7 (Homo sapiens), sequence (P55210 24-198 limits assumed): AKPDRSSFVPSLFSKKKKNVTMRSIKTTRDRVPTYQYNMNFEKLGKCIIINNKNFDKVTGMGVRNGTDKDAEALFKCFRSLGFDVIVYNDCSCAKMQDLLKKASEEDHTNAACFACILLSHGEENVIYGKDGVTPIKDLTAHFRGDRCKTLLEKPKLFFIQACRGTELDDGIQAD
Caspase-7 (Homo sapiens), sequence (P55210 207-303 limits assumed): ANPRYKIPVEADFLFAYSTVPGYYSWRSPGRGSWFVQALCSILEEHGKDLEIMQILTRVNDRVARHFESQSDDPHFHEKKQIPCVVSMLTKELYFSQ
Caspase-2 (Homo sapiens), sequence (P42575 170-325 limits assumed): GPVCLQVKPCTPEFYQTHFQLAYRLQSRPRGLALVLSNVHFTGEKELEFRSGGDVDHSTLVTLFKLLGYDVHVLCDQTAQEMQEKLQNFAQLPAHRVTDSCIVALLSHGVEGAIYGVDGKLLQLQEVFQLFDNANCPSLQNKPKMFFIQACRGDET
Caspase-2 (Homo sapiens), sequence (P42575 334-452 limits assumed): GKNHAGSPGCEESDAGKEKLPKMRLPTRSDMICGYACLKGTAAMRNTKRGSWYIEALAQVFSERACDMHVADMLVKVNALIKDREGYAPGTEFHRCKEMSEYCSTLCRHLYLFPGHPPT
Coagulation factor X (Homo sapiens), sequence (P00742 41-179 limits assumed): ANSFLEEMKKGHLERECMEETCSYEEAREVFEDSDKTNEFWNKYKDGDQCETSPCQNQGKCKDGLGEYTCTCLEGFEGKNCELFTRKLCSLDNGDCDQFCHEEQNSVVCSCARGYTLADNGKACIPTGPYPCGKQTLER
Coagulation factor X (Homo sapiens), sequence (P00742 235-488 limits assumed): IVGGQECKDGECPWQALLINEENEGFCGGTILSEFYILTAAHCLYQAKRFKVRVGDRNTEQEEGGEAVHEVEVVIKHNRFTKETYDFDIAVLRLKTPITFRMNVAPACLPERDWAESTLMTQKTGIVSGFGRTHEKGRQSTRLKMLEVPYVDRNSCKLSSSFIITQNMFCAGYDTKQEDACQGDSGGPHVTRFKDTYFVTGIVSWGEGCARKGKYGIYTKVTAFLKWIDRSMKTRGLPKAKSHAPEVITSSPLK

Compound: CCOC(C)c1c(NC(=O)Nc2cnc(-n3nccn3)c(Cl)c2)cnc2sc(C)nc12 (stereo not drawn)
- fraction unbound [1]: 0.022
- inhibition [2]: 22%
- inhibition [3]: 14.1%
- half-life [4]: 192 min
- inhibition [5]: 15.7%
- inhibition [6]: 11.8%
- solubility [7]: < 4 µM
- inhibition (Trypsin (Homo sapiens)): 1.9%
- inhibition (Caspase-4 (Homo sapiens)): 9%
- half-life [8]: 43 min
- EC50 (OCI-Ly3): 360 nM
- inhibition [9]: -5.2%
- half-life [10]: 127 min
- inhibition (Caspase-8 (Homo sapiens)): 10.8%
- inhibition (Caspase-3 (Homo sapiens)): 1%
- inhibition [11]: 21.9%
- inhibition (Legumain (Homo sapiens)): -4.2%
- inhibition [12]: -9%
- inhibition [13]: 18.8%
- AUC(0-inf) [14]: 10100 ng·h/mL
- inhibition (Homo sapiens [15]): -9.4%
- inhibition [16]: 1%
- bioavailability [17]: 19%
- inhibition [18]: -2.6%
- fraction unbound [19]: 0.025
- clearance [20]: 1.6 mL/min/kg
- inhibition (Caspase-9 (Homo sapiens)): 17.5%
- inhibition (Homo sapiens [21]): 2%
- inhibition (Caspase-6 (Homo sapiens)): -3.9%

Compound: CO[C@@H](C)c1c(NC(=O)Nc2cnc(-n3nccn3)c(Cl)c2)cnc2cc(Cl)nn12
- inhibition [2]: 108%
- inhibition [22]: 99.8%
- inhibition [3]: 98.8%
- inhibition [5]: 100%
- inhibition [6]: 102%
- inhibition (Caspase-2 (Homo sapiens)): 87.3%
- inhibition (Caspase-7 (Homo sapiens)): 98.1%
- inhibition (Trypsin (Homo sapiens)): 100%
- inhibition (Caspase-4 (Homo sapiens)): 110%
- EC50 (OCI-Ly3): 120 nM
- inhibition [9]: 89.9%
- inhibition [23]: 99.8%
- inhibition (Caspase-8 (Homo sapiens)): 99.7%
- inhibition (Caspase-3 (Homo sapiens)): 99.9%
- inhibition [11]: 99.7%
- inhibition (Legumain (Homo sapiens)): 88.4%
- inhibition [24]: 99%
- inhibition [12]: 99.7%
- inhibition [13]: 98.7%
- inhibition [25]: 92.5%
- inhibition (Homo sapiens [15]): 98.8%
- inhibition [16]: 99.9%
- inhibition (Caspase-1 (Homo sapiens)): 99.7%
- inhibition (Caspase-5 (Homo sapiens)): 92.6%
- inhibition [26]: 100%
- inhibition [18]: 94.8%
- inhibition (Caspase-9 (Homo sapiens)): 89.2%
- inhibition (Homo sapiens [21]): 99.4%
- inhibition (Caspase-6 (Homo sapiens)): 88.1%
